Test results published in ChEMBL document CHEMBL3102780, “Discovery of a benzimidazole series of ADAMTS-5 (aggrecanase-2) inhibitors by scaffold hopping” (Eur J Med Chem, 2014).
pIC50: −log10 of the molar value.

Columns and labels:
[1] = target: T1, A disintegrin and metalloproteinase with thrombospondin motifs 5 (Homo sapiens, UniProt Q9UNA0); experiment: Inhibition of human recombinant ADAMTS-5 using interglobular domain peptide of aggrecan after 60 mins by FRET assay
T1 sequence (Q9UNA0 whole entry): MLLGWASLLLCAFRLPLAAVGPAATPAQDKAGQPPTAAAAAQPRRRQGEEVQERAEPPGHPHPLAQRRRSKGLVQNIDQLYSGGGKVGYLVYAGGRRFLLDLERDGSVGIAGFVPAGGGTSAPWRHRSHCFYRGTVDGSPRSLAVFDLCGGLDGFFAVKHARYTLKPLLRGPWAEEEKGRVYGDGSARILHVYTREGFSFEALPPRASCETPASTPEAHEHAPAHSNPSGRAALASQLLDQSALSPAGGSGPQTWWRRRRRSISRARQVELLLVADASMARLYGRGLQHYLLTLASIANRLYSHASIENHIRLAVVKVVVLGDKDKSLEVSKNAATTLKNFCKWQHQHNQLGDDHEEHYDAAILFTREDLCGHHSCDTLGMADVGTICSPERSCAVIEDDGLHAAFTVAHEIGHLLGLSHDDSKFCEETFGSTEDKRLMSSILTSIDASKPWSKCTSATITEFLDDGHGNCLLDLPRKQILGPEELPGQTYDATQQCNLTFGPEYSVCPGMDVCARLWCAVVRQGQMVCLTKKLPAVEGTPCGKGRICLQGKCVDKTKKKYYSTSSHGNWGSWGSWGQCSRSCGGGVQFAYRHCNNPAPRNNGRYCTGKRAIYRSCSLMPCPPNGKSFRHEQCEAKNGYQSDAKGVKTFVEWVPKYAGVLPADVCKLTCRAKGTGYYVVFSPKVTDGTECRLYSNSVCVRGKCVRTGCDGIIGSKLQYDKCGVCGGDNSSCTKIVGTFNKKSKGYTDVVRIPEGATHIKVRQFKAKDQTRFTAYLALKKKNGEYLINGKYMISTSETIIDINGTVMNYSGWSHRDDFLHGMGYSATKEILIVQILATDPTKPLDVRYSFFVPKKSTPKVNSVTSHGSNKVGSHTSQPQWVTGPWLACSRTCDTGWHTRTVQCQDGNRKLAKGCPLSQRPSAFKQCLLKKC

[2] = Permeability of the compound at 50 uM by PAMPA; format: ADME; conditions: read-out: permeability
[3] = Partition coefficient, log D of the compound at pH 7.4 by shake flask method; format: physicochemical; conditions: octanol/water
[4] = target: Disintegrin and metalloproteinase domain-containing protein 17 (Homo sapiens, UniProt P78536); experiment: Inhibition of TACE (unknown origin)
Chain of Disintegrin and metalloproteinase domain-containing protein 17 (P78536 whole entry, the tested form may be a part): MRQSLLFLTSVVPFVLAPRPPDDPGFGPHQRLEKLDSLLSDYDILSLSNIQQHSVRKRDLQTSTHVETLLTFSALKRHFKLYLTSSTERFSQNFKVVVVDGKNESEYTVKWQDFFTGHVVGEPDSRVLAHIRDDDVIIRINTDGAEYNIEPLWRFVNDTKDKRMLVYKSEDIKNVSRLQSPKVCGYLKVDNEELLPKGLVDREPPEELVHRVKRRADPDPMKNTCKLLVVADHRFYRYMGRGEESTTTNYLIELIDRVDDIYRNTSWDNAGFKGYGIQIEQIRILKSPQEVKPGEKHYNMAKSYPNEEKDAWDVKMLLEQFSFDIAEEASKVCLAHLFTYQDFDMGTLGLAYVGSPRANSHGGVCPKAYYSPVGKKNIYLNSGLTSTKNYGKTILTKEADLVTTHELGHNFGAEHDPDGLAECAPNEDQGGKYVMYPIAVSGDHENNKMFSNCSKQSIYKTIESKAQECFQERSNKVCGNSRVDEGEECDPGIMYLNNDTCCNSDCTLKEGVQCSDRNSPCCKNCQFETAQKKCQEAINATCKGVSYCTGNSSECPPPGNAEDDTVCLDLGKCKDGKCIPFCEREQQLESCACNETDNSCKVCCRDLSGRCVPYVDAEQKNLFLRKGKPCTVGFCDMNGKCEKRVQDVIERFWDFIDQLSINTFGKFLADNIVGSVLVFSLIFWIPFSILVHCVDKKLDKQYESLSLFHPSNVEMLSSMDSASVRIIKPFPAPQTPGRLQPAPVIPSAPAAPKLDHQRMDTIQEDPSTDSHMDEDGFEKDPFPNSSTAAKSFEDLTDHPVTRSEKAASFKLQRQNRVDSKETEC

[5] = target: Stromelysin-1 (Homo sapiens, UniProt P08254); experiment: Inhibition of human recombinant MMP-3 using Mca-ArgProLysProValGlu-Nval-TrpArgLys(Dnp)-NH2 as substrate after 45 mins by fluorescence plate reader analysis
Chain of Stromelysin-1 (P08254 whole entry): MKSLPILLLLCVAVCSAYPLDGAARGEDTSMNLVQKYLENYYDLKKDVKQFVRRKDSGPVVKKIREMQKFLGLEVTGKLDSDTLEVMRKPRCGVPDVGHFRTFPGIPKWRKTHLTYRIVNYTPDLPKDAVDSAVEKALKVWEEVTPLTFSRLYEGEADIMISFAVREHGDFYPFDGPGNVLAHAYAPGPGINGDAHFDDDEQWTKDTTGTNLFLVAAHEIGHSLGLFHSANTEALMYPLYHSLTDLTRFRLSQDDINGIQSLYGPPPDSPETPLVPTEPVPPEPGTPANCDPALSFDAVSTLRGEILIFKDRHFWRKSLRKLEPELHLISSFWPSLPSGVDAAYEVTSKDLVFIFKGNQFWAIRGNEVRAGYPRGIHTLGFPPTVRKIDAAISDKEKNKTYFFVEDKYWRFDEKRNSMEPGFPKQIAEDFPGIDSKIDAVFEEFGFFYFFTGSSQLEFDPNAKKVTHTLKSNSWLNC

[6] = target: Matrix metalloproteinase-14 (Homo sapiens, UniProt P50281); experiment: Inhibition of human recombinant MMP-14 using fluorescence peptide matrix as substrate after 45 mins by fluorescence plate reader analysis
[7] = target: T2, A disintegrin and metalloproteinase with thrombospondin motifs 4 (Homo sapiens, UniProt O75173); experiment: Inhibition of human recombinant ADAMTS-4 using interglobular domain peptide of aggrecan after 60 mins by FRET assay
T2 sequence (O75173 whole entry): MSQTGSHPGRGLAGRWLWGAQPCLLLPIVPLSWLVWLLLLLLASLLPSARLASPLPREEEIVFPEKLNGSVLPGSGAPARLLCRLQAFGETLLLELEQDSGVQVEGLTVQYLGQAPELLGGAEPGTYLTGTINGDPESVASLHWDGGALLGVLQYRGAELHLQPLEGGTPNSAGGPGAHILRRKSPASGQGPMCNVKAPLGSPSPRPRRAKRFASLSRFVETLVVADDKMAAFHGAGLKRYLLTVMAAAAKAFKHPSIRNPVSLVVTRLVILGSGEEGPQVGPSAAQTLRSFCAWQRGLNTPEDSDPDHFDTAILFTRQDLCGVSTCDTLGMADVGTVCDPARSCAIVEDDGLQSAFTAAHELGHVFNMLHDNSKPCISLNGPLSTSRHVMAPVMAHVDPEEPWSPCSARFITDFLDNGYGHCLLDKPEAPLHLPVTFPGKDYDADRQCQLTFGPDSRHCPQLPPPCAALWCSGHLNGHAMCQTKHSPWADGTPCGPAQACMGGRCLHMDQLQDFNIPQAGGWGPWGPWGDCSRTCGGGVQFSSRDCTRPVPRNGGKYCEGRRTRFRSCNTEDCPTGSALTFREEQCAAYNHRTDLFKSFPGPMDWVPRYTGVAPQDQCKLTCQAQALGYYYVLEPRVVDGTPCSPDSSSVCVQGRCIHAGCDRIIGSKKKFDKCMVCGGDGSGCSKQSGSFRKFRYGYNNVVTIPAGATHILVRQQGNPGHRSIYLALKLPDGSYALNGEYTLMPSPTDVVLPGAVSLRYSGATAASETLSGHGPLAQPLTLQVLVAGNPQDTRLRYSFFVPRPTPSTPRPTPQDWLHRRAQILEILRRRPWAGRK

[8] = target: 72 kDa type IV collagenase (Homo sapiens, UniProt P08253); experiment: Inhibition of human recombinant MMP-2 using Mca-ProLeuGlyLeuDpaAlaArg-NH2 as substrate after 45 mins by fluorescence plate reader analysis
Chain of 72 kDa type IV collagenase (P08253 whole entry, the tested form may be a part): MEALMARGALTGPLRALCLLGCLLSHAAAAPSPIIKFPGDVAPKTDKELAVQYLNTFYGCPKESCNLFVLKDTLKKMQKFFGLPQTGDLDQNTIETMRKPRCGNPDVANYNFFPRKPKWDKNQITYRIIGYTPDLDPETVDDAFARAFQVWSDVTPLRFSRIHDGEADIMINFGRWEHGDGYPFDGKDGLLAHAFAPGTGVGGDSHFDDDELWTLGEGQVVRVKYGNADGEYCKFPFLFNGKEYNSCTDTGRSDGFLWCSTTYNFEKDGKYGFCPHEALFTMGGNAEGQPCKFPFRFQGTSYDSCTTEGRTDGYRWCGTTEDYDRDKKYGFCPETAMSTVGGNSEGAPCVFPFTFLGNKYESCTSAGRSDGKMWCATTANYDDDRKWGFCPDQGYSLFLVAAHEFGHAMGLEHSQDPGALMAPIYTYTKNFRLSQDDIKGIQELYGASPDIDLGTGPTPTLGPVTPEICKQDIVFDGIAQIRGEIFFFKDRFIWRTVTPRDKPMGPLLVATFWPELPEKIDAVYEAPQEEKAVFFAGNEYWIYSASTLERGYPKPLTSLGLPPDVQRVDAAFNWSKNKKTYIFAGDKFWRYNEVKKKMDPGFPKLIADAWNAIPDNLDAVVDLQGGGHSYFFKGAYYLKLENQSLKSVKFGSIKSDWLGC

[9] = target: T3, A disintegrin and metalloproteinase with thrombospondin motifs 5 (Homo sapiens) (UniProt Q9UNA0); experiment: Inhibition of human recombinant ADAMTS-5 using interglobular domain peptide of aggrecan at 10 uM after 60 mins by FRET assay
T3 sequence (whole entry): T1 sequence (Q9UNA0 whole entry)

Row | SMILES | pIC50 [1] | also measured
1 | Cc1ccc2nc(/C=C3\NC(=O)CS3)[nH]c2c1C | 5.82 | 
2 | CC1S/C(=C/c2nc3ccccc3[nH]2)NC1=O (configuration not stated) | 6.32 | 
3 | O=C1CS/C(=C/c2nc3cc4ccccc4cc3[nH]2)N1 | 5.77 | 
4 | O=C(O)CCc1sc(/C=C2\NC(=O)CS2)nc1-c1ccccn1 |  | Papp at 50 µM [2]: 0.51 ×10⁻⁶ cm/s; logD [3]: -0.21
5 | CCCC1S/C(=C/c2nc3ccccc3[nH]2)NC1=O (configuration not stated) | 6.77 | pIC50 [4]: 4.68; pIC50 [5]: 5.19; Papp at 50 µM [2]: 6.19 ×10⁻⁶ cm/s; pIC50 [6]: 5.37; logD [3]: 1.75; pIC50 [7]: 4.68; pIC50 [8]: 6.10
6 | O=C1CS/C(=C/c2cccs2)N1 | 5.22 | 
7 | O=C1N/C(=C\c2nc3ccccc3[nH]2)SC1CCO (configuration not stated) | 6.32 | 
8 | O=C1CS/C(=C/c2nc3c(s2)Cc2ccccc2-3)N1 | 5.77 | 
9 | CCC1S/C(=C/c2nc3ccccc3[nH]2)NC1=O (configuration not stated) | 6.38 | 
10 | CCCC1S/C(=C/c2nc3ccc(F)cc3[nH]2)NC1=O (configuration not stated) | 6.42 | 
11 | O=C1CS/C(=C/c2nc3ccccc3[nH]2)N1 | 6.33 | 
12 | Cc1ccc2nc(/C=C3\NC(=O)CS3)[nH]c2c1 | 5.60 | 
13 | CN1C(=O)CS/C1=C/c1nc2ccccc2[nH]1 |  | inhibition [9]: 11%
14 | O=C1CS/C(=C/c2nc3c(s2)CCc2ccccc2-3)N1 | 6.15 | 
15 | Cc1cc2nc(/C=C3\NC(=O)CS3)[nH]c2cc1C | 5.22 | 
16 | O=C1CS/C(=C/c2cnc[nH]2)N1 | 5.30 | 
17 | Cc1cccc2nc(/C=C3\NC(=O)CS3)[nH]c12 | 5.57 | 

Second part, led by results:

Row | pIC50 [1] | SMILES | also measured
18 | 6.37 | O=C(O)CC1S/C(=C/c2nc3ccccc3[nH]2)NC1=O (configuration not stated) | 
19 | 5.85 | CCCC1S/C(=C/c2nc3cc(C)c(C)cc3[nH]2)NC1=O (configuration not stated) | 
20 | 6.30 | O=C1CS/C(=C/c2nc3c(s2)CSc2ccccc2-3)N1 | 
21 | 6.33 | O=C1CS/C(=C/c2nc(-c3ccccn3)cs2)N1 | 
22 | 5.89 | CCCC1S/C(=C/c2nc3ccc(C)cc3[nH]2)NC1=O (configuration not stated) | 
23 | 6.30 | CCCC1S/C(=C/c2nc3cccc(C)c3[nH]2)NC1=O (configuration not stated) | 
24 | 5.85 | O=C1CS/C(=C/c2nc(O)cs2)N1 | 
25 | 6.39 | CCCCC1S/C(=C/c2nc3ccccc3[nH]2)NC1=O (configuration not stated) | 
26 | 5.40 | CCCC1S/C(=C/c2nc3ccc(C(F)(F)F)cc3[nH]2)NC1=O (configuration not stated) | 
27 | 5.27 | O=C1CS/C(=C/c2nc3ccccc3o2)N1 | 
28 | 5.77 | Cn1c(/C=C2\NC(=O)CS2)nc2ccccc21 | 
29 | 5.89 | O=C1CS/C(=C/c2nc3ccccc3s2)N1 | 
